From US20260000781A1, “FC CONJUGATES INCLUDING AN INHIBITOR OF CD73 AND USES THEREOF” (Cidara Therapeutics, Inc., priority 2022, published 2026) come the findings set out here.

Experiment [1] has as its system colon tumor cell line CT26. In words: Syngeneic mouse tumor efficacy model with colon tumor cell line CT26. The experiment is classed as in vivo. As to conditions: CT26, Day 10, 210 mg/kg/wk (30 mg/kg IP daily). Here is the method:
Tumor efficacy models were conducted in female BALB/c mice (Charles River; 18-22 g) injected with the colon tumor cell line CT26 (ATCC; CRL-2638). Briefly, CT26 cells freshly prepared and resuspended in PBS were injected SC into the shaved right flank of mice. Tumors were allowed to grow until they became measurable (˜50 mm^3) (typically after 7-10 days of growth). Mice were then randomized so each starting group had approximately the same tumor group average (typical+/−5 mm^3) and treatment initiated. Each group consisted of 10 animals. Conjugate 133a was dosed at 20 mg/kg via intraperitoneal (IP) injection on MWF, for 2 weeks. […] The study also included a vehicle (PBS) only treatment group with the aforementioned schedule. After initiation of treatment tumors were measured 3×/week with tumor volumes calculated based on the following formula: (width×width×length)/2. All tumors were monitored until the maximum allowed volume was reached (=>2,000 mm^3).
Tumor efficacy models were conducted in female BALB/c mice (Charles River; 18-22 g) injected with the colon tumor cell line CT26 (ATCC; CRL-2638). […] After initiation of treatment tumors were measured 3×/week with tumor volumes calculated based on the following formula: (width×width×length)/2. All tumors were monitored until the maximum allowed volume was reached (=>2,000 mm^3). […]

Experiment [2] has as its system breast tumor cell line EMT-6. Briefly: Syngeneic mouse tumor efficacy model with breast tumor cell line EMT-6. The experiment is classed as in vivo. As to conditions: EMT-6, IP. Here is the method: Tumor efficacy models were conducted in female BALB/c mice (Charles River laboratories; 18-22 g) injected with the breast tumor cell line EMT-6 (ATCC; CRL-2755). Briefly, EMT-6 cells propagated and prepared by standard methods were resuspended in PBS and injected subcutaneously (in a 100 μL volume) into the shaved right flank of mice. Five days after cell injection, and prior to measurable tumor formation, treatment was initiated via IP injection (10 mL/kg) of test articles or controls. […] The test article was Conjugate 172a dosed at 30 mg/kg twice weekly, for 3 weeks. The final group consisted of mice dosed with both the anti-PD-1 mAb and Conjugate 172a at 30 mg/kg using the respective dosing schedules for each.
Each group consisted of 15 animals and tumors were measured 3× weekly with calipers on Mon/Wed/Fri. Tumor volumes were calculated based on the following formula: [(width×width×length)/2]. All tumors were monitored until the maximum allowed volume was reached (=>2,000 mm^3).
Although occasionally an animal would be removed from study if the tumor grew internally causing undo stress to the animal, or the inability to measure the tumor accurately. Data was analyzed and graphed with Graphpad Prism 6.00. Where conducted, statistical evaluation used the Mann-Whitney variation of the t-test. […]

For the next experiment, the system named is human T cells. In words: Rescue of T cell activation in the presence of AMP. In kind it is cell-based. As to conditions: CD25, 72 h. How it is done: Human T cells (cat. no. 72400, Stem Cell Tech) were activated with anti-CD3/CD28/CD2 T cell activator (cat. no. 10970, Stem Cell Technologies) and seeded at 1×10^5 cells/well in ImmunoCult™—XF T Cell Expansion medium into 96-well tissue culture-treated plates. Test articles were added at concentrations ranging from 1 to 10,000 nM. Next, adenosine 5′-monophosphate (AMP; cat. no 01930, Sigma) was added at 30 μM or 100 μM. Cells, test articles and AMP were incubated at 37° C., 5% CO2 for 72 h. After 72 h, cell supernatant was removed, and T cells were washed in staining buffer prior to staining for CD25 with anti-human CD25 PE antibody (cat. no 60153PE, Stem Cell Technologies, clone 2A3). After staining, cells were washed in staining buffer. 10,000 events were collected on flow cytometer Northern Lights (Cytek). Percent rescue versus concentration were plotted using GraphPad Prism Version 8 and EC50's calculated using nonlinear regression analysis ([inhibitor]vs normalized response).

On to `C[C@H](Nc1cc(Cl)nc2c1cnn2[C@@H]1O[C@H](COP(=O)(O)CP(=O)(O)O)[C@@H](O)[C@H]1O)c1ccccc1F` [AB680], for which the “reduction in tumor volume compared to the vehicle group” value in experiment [1] stood at 50.7%. Also, in experiment [2] (15 animals per group, regimens as for % tumor reduction), the “% Complete regression (Day 36)” value was 6.7%. Also, in experiment [2] (Conjugate 172a 30 mg/kg twice weekly for 3 weeks, AB680 30 mg/kg daily, anti-PD-1 mAb on Day 0, 2, 4, 7, 9, 12), the “% Tumor reduction (Day 22)” value was determined as 0%.
Usually EC50 stands for the concentration that produces a half-maximal response. For `COC[C@](CO)(OC[C@H]1O[C@@H](n2ncc3c(NC4CCCC4)nc(Cl)nc32)[C@H](O)[C@@H]1O)P(=O)(O)O` [OP5244], the EC50 in the experiment on human T cells (30 μM AMP) is 2.88 nM; with human T cells (100 μM AMP), 8.37 nM.
